From patent publication US11931444B2, “Topical composition” (DSM IP Assets B.V., priority 2018, dated 2024)

Legend:
[1] = Particle size by laser diffraction (Malvern Mastersizer 2000) and/or Coulter Delsa Nano S; assay type: physicochemical
Source text: The term ‘mean particle size’ as used herein refers to the mean number-based particle size distribution Dn50 (also known as Dn0.5) as determined by laser diffraction e.g. with a Malvern Mastersizer 2000 (ISO 13320:2009).
All particles sizes have been determined by laser diffraction with a Malvern Mastersizer 2000 according to the method as outlined in ISO 13320:2009 and/or a Coulter Delsa Nano S (dynamic laser scattering).

[2] = Polarity index (interfacial tension of the oil with respect to water); assay type: physicochemical; details: for polarity index: Table 1, printed under the ingredient name; for polarity index mN/m: Table 2
Source text: The term “polarity index” is a parameter which is known to the person skilled in the art. The polarity of an oil is defined as the polarity index (interfacial tension) of the oil with respect to water. The interfacial tension, i. e. the polarity index, can be particularly determined using a ring tensiometer (e.g., Krüss K 10), which measures the interfacial tension in mN/m in analogy to the ASTM method D971-99a (2004).

| polarity index [2] | polarity index mN/m [2] | Compound | Particle size Dn50 [1] |
| --- | --- | --- | --- |
| – | – | c1ccc2oc(-c3ccc(-c4nc5ccccc5o4)cc3)nc2c1 [DBO-400 (A), 1,4-di(benzoxazol-2′-yl)benzene] | 380 nm |
| 11.6 mN/m) | 11.6 mN/m | CC(C)OC(=O)CCCCC(=O)OC(C)C [Diiso propyl adipate, Diisopropyl Adipate] | – |
| (polarity index 43.8 mN/m) | 43.8 mN/m | CCCCCCCCCCCCCC(C)C [Isohexadecane] | – |
| – | 36.2 mN/m | Isocetyl Stearate | – |
